{"source": "patent US11712466B2", "about": "“Vaccine composition” (TOHOKU UNIVERSITY, priority 2017, dated 2023)", "key": {"Lewis lung cancer cells": {"test_system": "Lewis lung cancer cells", "assay": "In vitro wound migration method with serum of immunized mouse (LLC)", "type": "cell-based", "settings": "1% serum of mouse with increased anti-VASH2 titer after vaccine; 24 and 48 hours", "experimental": "By using the serum derived from a mouse in which an increase in the antibody titer against the recombinant human VASH2 protein by administration of the MTG peptide vaccine was confirmed, the effect on the migration ability of various types of cancer cells was examined by an in vitro wound migration method. Mouse-derived Lewis lung cancer cells and human-derived RH30 rhabdomyosarcoma cells were added to a 6-well plate at 1.0×10^6 cells each. After 24 hours, a formed cell monolayer was wounded and linearly exfoliated. After the exfoliation, the medium was replaced with fresh 0.5% FBS+RPMI medium supplemented with 1% mouse serum. At 24 hours and 48 hours after the medium replacement, the image of the cell monolayer was captured using an IX71 inverted microscope (manufactured by Olympus Corporation), and a cell migration distance of each time zone was analyzed using ImageJ software. The analysis was carried out according to the following formula. Cell migration distance (%)={(A−B)/A}×100\nA: Width of initial wound, B: Width of wound after 24 hours or 48 hours"}, "[1]": {"test_system": "mouse melanoma cells (B16F1)", "assay": "Subcutaneous implant model, tumor growth inhibitory effect (B16F1)", "type": "in vivo", "settings": "immunized C57BL/6J mice, cells implanted s.c. on day 29, measured 14 days after implantation", "experimental": "(§1) After 2 weeks from the administration of each peptide vaccine and incomplete Freund's adjuvant in Example 1 (on day 29 after the initial peptide vaccine administration), mouse-derived tumor cells were implanted in an immunized mouse, whereby a subcutaneous implant model was prepared. Specifically, mouse lung cancer cells (Lewis lung cancer cells (LLC)) or mouse melanoma cells (B16F1) (all have C57BL/6J as a genetic background) cultured in a RPMI+10% FBS medium were collected by centrifugation, and a cell suspension (1.0×10^8 cells/mL) was prepared with a serum-free medium, and 0.1 mL (1.0×10^7 cells/animal) of the cell suspension was implanted in a right axillary subcutaneous region of a mouse using a 27G injection needle and a syringe, whereby a subcutaneous implant model of tumor cells was prepared."}, "KPC mouse": {"test_system": "KPC mouse", "assay": "Life-extending effect in KPC mouse, spontaneous pancreatic cancer model", "type": "in vivo", "settings": "KPC mice n=8, 100 μg with Alhydrogel every two weeks; all KLH controls (n=7) died before 300 days", "experimental": "To a KPC mouse (aged 8 weeks at the initial immunization) that is a spontaneous pancreatic cancer model, 100 μg of the MTG peptide vaccine was administered together with Alhydrogel (registered trademark) every two weeks, and the survival rate thereof was confirmed (n=8). A KPC mouse to which 100 μg of KLH was administered according to the same schedule was used as a control (n=7) (FIG. 13)."}, "[2]": {"test_system": "Lewis lung cancer cells (LLC)", "assay": "Subcutaneous implant model, tumor growth inhibitory effect (LLC)", "type": "in vivo, mouse", "settings": "immunized C57BL/6J mice, cells implanted s.c. on day 29, measured 14 days after implantation", "experimental": "as §1"}, "[3]": {"test_system": "antigen peptide (peptide-conjugated BSA)", "assay": "Antibody titer in blood of immunized mice by ELISA against antigen peptide", "type": "in vivo, mouse", "excerpt": "C57BL/6J male mice aged 8 weeks were purchased from Charles River Laboratories Japan, Inc. After the delivery, the mice were reared in an environment where the room temperature and the light and dark cycles were maintained, and were provided with feed and water ad libitum. As a candidate sequence leading to activation of helper T cells by MHC class II, two peptide sequences: MTGSAADTHR (SEQ ID NO: 4; hereinafter, a peptide composed of the amino acid sequence is referred to as “MTG peptide”) and RRRQASPPRR (SEQ ID NO: 5; hereinafter, a peptide composed of the amino acid sequence is referred to as “RRR peptide”), each of which is not common to VASH1 in the VASH2 sequence were selected (FIG. 1). With respect to these peptides, peptide vaccines using KLH as a carrier were constructed. Note that for the conjugation of each peptide with KLH, a glutaraldehyde method was used. When the amount of the peptide introduced into KLH was measured for each of the obtained peptide vaccines, the amount of MTG was 66 to 70 nmol/mg of the conjugate, and the amount of RRR was 62 to 76 nmol/mg of the conjugate. Subsequently, 5 μg of KLH (control) and 20 μg of each of the KLH-antigen complexes were prepared with physiological saline so that the total amount was 50 μL, respectively, whereby KLH-mixed solutions were obtained. To each of the KLH-mixed solutions (50 μL), an equal amount of complete Freund's adjuvant was added. The obtained mixture was subcutaneously administered to the mice, whereby initial immunization was carried out. After 2 weeks from the administration, booster immunization was carried out by subcutaneously administering a mixture of each of the KLH-mixed solutions (50 μL) and an equal amount of incomplete Freund's adjuvant to the mice. Further, after 2 weeks from the booster immunization (after a total of 4 weeks), an increase in the antibody titer in the blood of each of the immunized mice was verified by ELISA.\nThe measurement of the antibody titer by ELISA was carried out as follows. After 2 weeks from the booster immunization (after a total of 4 weeks), the blood was collected from the facial vein of each of the immunized mice, and the serum separated from the blood was subjected to ELISA. By using 50 mM carbonate buffer, peptide-conjugated BSA was prepared at 10 μg/mL, and further a recombinant VASH2 protein was prepared at 1 μg/mL, each of which was added at 50 μL/well, and the resultant was left to stand overnight at 4° C. After the solution in each well was removed, 5% skim milk was added at 150 μL/well. […] After 30 minutes, the reaction was stopped by adding 0.5 N H2SO4 at 50 μL/well, and an absorbance (450 nm) was measured using a microplate reader."}}, "note": "Entries after “also recorded” stand apart in the source; their conditions may differ. Ends that are not written are not given here.", "data": [{"substance": "MTG peptide vaccine: MTG peptide MTGSAADTHR (SEQ ID NO: 4) conjugated with KLH as carrier by a glutaraldehyde method (also: conjugated with KLH by glutaraldehyde)", "values": [{"measurement": "cell migration, mouse-derived Lewis lung cancer cells", "setting": "Lewis lung cancer cells", "value": "migration inhibitory effect"}, {"measurement": "tumor size (tumorigenesis), B16F1 melanoma cells", "setting": "[1]", "value": "marked inhibition of tumorigenesis; also recorded: marked inhibition of tumor growth"}, {"measurement": "mice survived over 300 days after birth", "setting": "KPC mouse", "value": "at least 2 mice"}, {"measurement": "tumor size (tumorigenesis), Lewis lung cancer cells", "setting": "[2]", "value": "marked inhibition of tumorigenesis; also recorded: marked inhibition of tumor growth"}, {"measurement": "antibody titer against the antigen peptide", "setting": "[3]; Example 1: C57BL/6J mice, KLH-antigen complex s.c., Freund's adjuvant, serum 2 weeks after booster (total 4 weeks)", "value": "significant concentration-dependent increase"}, {"measurement": "production of an antibody specific to the antigen peptide", "setting": "[3]; Example 6: C57BL/6J mice, 20 or 100 μg, Alhydrogel, day 28", "value": "promotes the production of an antibody"}, {"measurement": "induced antibody binding to the antigen peptide (MTG)", "setting": "[3]; Example 8: C57BL/6Jx129SVJ mice, 100 μg, Alhydrogel, day 28", "value": "induced an antibody that binds to both"}]}]}
